Assay results from patent publication US20240360126A1, “PYRAZOLO[3,4-B]PYRIDINE COMPOUNDS FOR THE TREATMENT OF AUTOIMMUNE DISEASE” (Hoffmann-La Roche Inc., priority 2021, published 2024).
Like-named read-outs stand apart in the source and are kept apart here.

Assays:
[1] = test system: embryonic stem cells (D3) and 3T3 fibroblasts; test: mouse Embryonic Stem Cell Test (mEST); type: cell-based; settings: <0.5 negative, >0.6 positive
From the text: The in vitro mouse Embryonic Stem Cell Test (mEST) assay is an implemented routine assay at Roche. The original EST was developed by Horst Spielmann and his group in 1997 as an in vitro model for the screening of embryotoxicity, based on a blastocyst-derived permanent embryonic mouse ESC (mESC) D3 cell line derived from mouse 129 strains and was validated by European Centre for the Validation of Alternative Methods (ECVAM).
We further optimized and modified the approach allowing for the application of the assay to pharmaceutical compounds.
The cytotoxicity (inhibition of growth) of 3T3 fibroblasts, which represents differentiated cells and the cytotoxicity of undifferentiated embryonic stem cells (D3) after 10 days of substance treatment serve as two assay endpoints. This is determined by the use of dehydrogenase enzymes, which are present in the intact mitochondria of living cells to convert yellow soluble substrate 3-(4,5-dimethythiazol-2-yl)-2,5-diphenyl tetrazolium bromide (MTT) into a dark blue insoluble formazan product, which gets sequestered within the cells and is detected quantitatively using an absorbance reader (570 nm) after solubilizing the cell membrane.
The third endpoint is the inhibition of differentiation of ES cells into myocards which are cardiac muscle cells after 10 days of treatment. The beating of this cells is evaluated by microscopy. […]

[2] = Single dose pharmacokinetics (PK) study in male Wister-Han rats; type: in vivo; settings: rat; for clearance / half-life / AUC(0-t) / Vd / Cmax: male, Wister-Han, plasma; for Vd: read-out: Vss; for F: dose normalized AUC0-last after IV and PO dose
Description: Pharmacokinetic properties of selected compounds were assessed by single dose PK studies in Male Wister-Han Rats (vendor: Beijing Vital River Laboratory Animal Technology Co., Ltd). Briefly, two groups of animals were administered a single dose of respective compound intravenously (IV, bolus) at 2 mg/kg or orally (PO, by gavage) at 10 mg/kg. Blood samples (approximately 150 μL) were collected via Jugular vein at 5 min (only for IV), 15 min, 30 min, 1 h, 2 h, 4 h, 7 h and 24 h post-dose. Blood samples were placed into tubes containing EDTA-K2 anticoagulant and centrifuged at 3000 rpm for 15 min at 4° C. to separate plasma from the samples. After centrifugation, the resulting plasma was transferred to clean tubes for bioanalysis with LC/MS/MS. The pharmacokinetic parameters were calculated using non-compartmental analysis. The volume of distribution (Vss), half-life (T1/2) and clearance (CL) were obtained based on the plasma concentration-time curve after IV dose. The peak concentration (Cmax) was recorded directly from experimental observations after PO dose. The area under the plasma concentration-time curve (AUC0-last) was calculated using the linear trapezoidal rule up to the last detectable concentration. The bioavailability (F) was calculated based on the dose normalized AUC0-last after IV and PO dose.
The Vss of a drug represents the degree to which a drug is distributed in body tissue rather than the plasma. Vss is directly proportional with the amount of drug distributed into tissue. A higher Vss indicates a greater amount of tissue distribution.

[3] = IV 2 mg/kg, read-out: IV AUC0-last
[4] = PO 10 mg/kg, read-out: PO AUC0-last

| SMILES | Predictive scores D12_3 [1] | clearance ([2]; IV 2 mg/kg) [mL/min/kg] | half-life ([2]; IV 2 mg/kg) [h] | AUC(0-t) [2, 3] [ng·h/mL] | Vd ([2]; IV 2 mg/kg) [L/kg] | Cmax ([2]; PO 10 mg/kg) [ng/mL] | AUC(0-t) [2, 4] [ng·h/mL] | F [2] [%] |
| --- | --- | --- | --- | --- | --- | --- | --- | --- |
| Cc1cc(N2CC[C@H](c3ccc(N4CCOC[C@@H](N)C4)cn3)[C@@H](C)C2)c2cnn(C)c2n1 [Example 40, (6S)-4-[6-[(3R,4S)-1-(1,6-dimethylpyrazolo[3,4-b]pyridin-4-yl)-3-methyl-4-piperidyl]-3-pyridyl]-1,4-oxazepan-6-amine] | 0.36 | 32.8 | 7.26 | 1060 | 13.2 | 216 | 2840 | 53.4 |
| Cc1cc(N2CC[C@@H](c3ncc(N4CCOC[C@@H](N)C4)cc3C)[C@H](C)C2)c2cnn(C)c2n1 [Example 28, (6S)-4-[6-[(3S,4R)-1-(1,6-dimethylpyrazolo[3,4-b]pyridin-4-yl)-3-methyl-4-piperidyl]-5-methyl-3-pyridyl]-1,4-oxazepan-6-amine] | 0.44 | 30.2 | 8.84 | 974 | 16.7 | 122 | 1800 | 37 |
| CO[C@@H]1CN(c2cnc([C@@H]3CCN(c4cc(C)nc5c4cnn5C)C[C@H]3C)c(C)c2)C[C@H]1N [Example 26, (3R,4R)-1-[6-[(3S,4R)-1-(1,6-dimethylpyrazolo[3,4-b]pyridin-4-yl)-3-methyl-4-piperidyl]-5-methyl-3-pyridyl]-4-methoxy-pyrrolidin-3-amine] |  | 10.3 | 15.7 | 2200 | 12.5 | 620 | 9260 | 84.3 |
| Cc1cc(N2CCC(c3ncc(N4CCNCC4)cc3C)CC2)c2cnn(C)c2n1 [Example 7, 1,6-dimethyl-4-[4-(3-methyl-5-piperazin-1-yl-2-pyridyl)-1-piperidyl]pyrazolo[3,4-b]pyridine] |  | 16 | 14.7 | 1520 | 16.8 | 465 | 7510 | 100 |
